Series [1] is described as follows: solubility and dissolution of diluents in water. It counts as physicochemical. As to conditions: lactose compared with mannitol.
The conditions of series [2]: Windholz et al., 1976; cited from earlier work.

The values that follow come from patent publication US20130252916A1, “ORAMUCOSAL PHARMACEUTICAL DOSAGE FORM” (UNIVERSITY OF THE WITWATERSRAND, JOHANNESBURG, priority 2005, published 2013).

With `OC[C@H]1O[C@@H](O[C@H]2[C@H](O)[C@@H](O)C(O)O[C@@H]2CO)[C@H](O)[C@@H](O)[C@H]1O` (some centres unmarked) [lactose], the rate of dissolution result in series [1] is recorded as “slower rate than mannitol”.
On to `OC[C@@H](O)[C@@H](O)[C@H](O)[C@H](O)CO` [mannitol], for which the “solubility (amount of cold water needed to dissolve)” value in series [2] was 5.5 mL.
